Laboratory results published in ChEMBL document CHEMBL5046301, “pH-Responsive Antimicrobial Peptide with Selective Killing Activity for Bacterial Abscess Therapy” (J Med Chem, 2022).
The source made the active and inactive calls. The calls are words filed in the database; no cut-off is given here.

Key:
[1] = Hemolytic activity in human RBC assessed as hemoglobin release at pH 7.4 incubated for 1 hr; assay type: toxicity, cell-based; details: erythrocyte, pH 7.4, 1 h
[2] = Hemolytic activity against human RBC assessed as hemoglobin release at pH 6.5 incubated for 1 hrs; assay type: toxicity, cell-based; details: erythrocyte, pH 6.5, 1 h
[3] = Ratio of MHC for hemolytic activity against human RBC assessed as hemoglobin release at pH 6.5 to MHC for hemolytic activity against human RBC assessed as hemoglobin release at pH 7.4; assay type: toxicity, cell-based, Erythrocyte; details: human red blood cells (RBC)
[4] = Cytotoxicity against mouse RAW264.7 cells assessed as inhibition of cell growth at pH 7.4 measured after 24 hrs by MTT assay; assay type: toxicity, cell-based
[5] = Cytotoxicity against mouse RAW264.7 cells assessed as inhibition of cell growth at pH 6.5 measured after 24 hrs by MTT assay; assay type: toxicity, cell-based
Pseudomonas aeruginosa [6] = assay: Antimicrobial activity against Pseudomonas aeruginosa ATCC 27853 assessed as reduction in bacterial growth at pH 6.5 in presence of NaCl; assay type: functional
Pseudomonas aeruginosa [7] = assay: Antimicrobial activity against Pseudomonas aeruginosa ATCC 27853 assessed as reduction in bacterial growth at pH 6.5 in presence of 50% serum; assay type: functional, organism-based
Pseudomonas aeruginosa [8] = assay: Antimicrobial activity against Pseudomonas aeruginosa ATCC 27853 assessed as reduction in bacterial growth at pH 7.4 in presence of NaCl; assay type: functional, organism-based
Pseudomonas aeruginosa [9] = assay: Antimicrobial activity against Pseudomonas aeruginosa ATCC 27853 assessed as reduction in bacterial growth at pH 7.4 in presence of CaCl2; assay type: functional, organism-based
Pseudomonas aeruginosa [10] = assay: Antimicrobial activity against Pseudomonas aeruginosa ATCC 27853 assessed as reduction in bacterial growth at pH 7.4 in presence of 50% serum; assay type: functional, organism-based
[11] = tested on: Staphylococcus epidermidis; assay: Antibacterial activity against Staphylococcus epidermidis ATCC 12228 assessed as inhibition of bacterial growth at pH 6.5 incubated for 24 hrs by NCCLS protocol based method; assay type: functional
Staphylococcus aureus [12] = assay: Antibacterial activity against methicillin-resistant Staphylococcus aureus ATCC 43300 assessed as inhibition of bacterial growth at pH 7.4 incubated for 24 hrs by NCCLS protocol based method; assay type: functional
Salmonella typhimurium [13] = assay: Antibacterial activity against Salmonella enterica subsp. enterica serovar Typhimurium C77-31 assessed as inhibition of bacterial growth at pH 7.4 incubated for 24 hrs by NCCLS protocol based method; assay type: functional
Salmonella typhimurium [14] = assay: Antibacterial activity against Salmonella typhimurium ATCC 14028 assessed as inhibition of bacterial growth at pH 7.4 incubated for 24 hrs by NCCLS protocol based method; assay type: functional, Salmonella enterica subsp. enterica serovar Typhimurium; details: Salmonella enterica
Escherichia coli [15] = assay: Antibacterial activity against Escherichia coli ATCC 25922 assessed as inhibition of bacterial growth at pH 7.4 incubated for 24 hrs by NCCLS protocol based method; assay type: functional
Pseudomonas aeruginosa [16] = assay: Antibacterial activity against Pseudomonas aeruginosa ATCC 27853 assessed as inhibition of bacterial growth at pH 7.4 incubated for 24 hrs by NCCLS protocol based method; assay type: functional
Staphylococcus aureus [17] = assay: Antibacterial activity against Staphylococcus aureus ATCC 29213 assessed as inhibition of bacterial growth at pH 7.4 incubated for 24 hrs by NCCLS protocol based method; assay type: functional
[18] = tested on: Staphylococcus epidermidis; assay: Antibacterial activity against Staphylococcus epidermidis ATCC 12228 assessed as inhibition of bacterial growth at pH 7.4 incubated for 24 hrs by NCCLS protocol based method; assay type: functional
Staphylococcus aureus [19] = assay: Antibacterial activity against Staphylococcus aureus ATCC 25923 assessed as inhibition of bacterial growth at pH 7.4 incubated for 24 hrs by NCCLS protocol based method; assay type: functional
Salmonella typhimurium [20] = assay: Antibacterial activity against Salmonella enterica subsp. enterica serovar Typhimurium C77-31 assessed as inhibition of bacterial growth at pH 6.5 incubated for 24 hrs by NCCLS protocol based method; assay type: functional
Salmonella typhimurium [21] = assay: Antibacterial activity against Salmonella typhimurium ATCC 14028 assessed as inhibition of bacterial growth at pH 6.5 incubated for 24 hrs by NCCLS protocol based method; assay type: functional, Salmonella enterica subsp. enterica serovar Typhimurium; details: Salmonella enterica
Escherichia coli [22] = assay: Antibacterial activity against Escherichia coli ATCC 25922 assessed as inhibition of bacterial growth at pH 6.5 incubated for 24 hrs by NCCLS protocol based method; assay type: functional
Pseudomonas aeruginosa [23] = assay: Antibacterial activity against Pseudomonas aeruginosa ATCC 27853 assessed as inhibition of bacterial growth at pH 6.5 incubated for 24 hrs by NCCLS protocol based method; assay type: functional
Staphylococcus aureus [24] = assay: Antibacterial activity against Staphylococcus aureus ATCC 29213 assessed as inhibition of bacterial growth at pH 6.5 incubated for 24 hrs by NCCLS protocol based method; assay type: functional
Staphylococcus aureus [25] = assay: Antibacterial activity against Staphylococcus aureus ATCC 25923 assessed as inhibition of bacterial growth at pH 6.5 incubated for 24 hrs by NCCLS protocol based method; assay type: functional
Staphylococcus aureus [26] = assay: Antibacterial activity against methicillin-resistant Staphylococcus aureus ATCC 43300 assessed as inhibition of bacterial growth at pH 6.5 incubated for 24 hrs by NCCLS protocol based method; assay type: functional
Cell membrane [27] = assay: Induction of outer membrane permeabilization in Pseudomonas aeruginosa ATCC 27853 assessed as pH responsive ability by measuring fold increase in NPN uptake at 64 uM by NPN-dye based fluorescence analysis relative to control; assay type: subcellular
Cell membrane [28] = assay: Induction of cytoplasmic membrane depolarization in Pseudomonas aeruginosa ATCC 27853 assessed as increase in fluorescence intensity at acidic and alkaline pH by DiSC3-5 dye based fluorescence assay; assay type: subcellular; details: TDE = time-dependent effect
Lipopolysaccharide (LPS) [29] = assay: Displacement of BODIPY-TR-cadaverin from Pseudomonas aeruginosa ATCC 27316 Lipopolysaccharide at 1 to 64 uM at pH 6.5 incubated for 1 hr by fluorescence based analysis; details: dose 1-64 µM
Lipopolysaccharide (LPS) [30] = assay: Displacement of BODIPY-TR-cadaverin from Pseudomonas aeruginosa ATCC 27316 Lipopolysaccharide at 1 to 64 uM at pH 7.4 incubated for 1 hr by fluorescence based analysis; details: dose 1-64 µM
Cell membrane [31] = assay: Induction of outer membrane permeabilization in Pseudomonas aeruginosa ATCC 27853 assessed as increase in NPN uptake by NPN-dye based fluorescence analysis; assay type: subcellular; details: dose 1-64 µM

Molecule `CC[C@H](C)[C@H](NC(=O)CN)C(=O)NCC(=O)N[C@@H](C)C(=O)N[C@H](C(=O)N[C@@H](CC(C)C)C(=O)N[C@@H](CCCCN)C(=O)N[C@H](C(=O)N[C@@H](CC(C)C)C(=O)N[C@H](C(=O)N[C@H](C(=O)NCC(=O)N[C@@H](CC(C)C)C(=O)N1CCC[C@H]1C(=O)N[C@@H](C)C(=O)N[C@@H](CC(C)C)C(=O)N[C@H](C(=O)N[C@@H](CO)C(=O)N[C@@H](Cc1c[nH]c2ccccc12)C(=O)N[C@H](C(=O)N[C@@H](CCCCN)C(=O)N[C@@H](CCCNC(=N)N)C(=O)N[C@@H](CCCCN)C(=O)N[C@@H](CCCNC(=N)N)C(=O)N[C@@H](CCC(N)=O)C(=O)N[C@@H](CCC(N)=O)C(N)=O)[C@@H](C)CC)[C@@H](C)CC)[C@@H](C)O)[C@@H](C)O)C(C)C)C(C)C` [MELITTIN] has an MHC10 [1] of 4 µM, an MHC10 [2] of 2 µM and a selectivity ratio [3] of 0.5. The IC50 at 24 h [4] was 1940 nM, the IC50 at 24 h [5] was 1300 nM and the Activity (Pseudomonas aeruginosa [6]) was “inactive”. The Activity (Pseudomonas aeruginosa [7]) was “inactive”, the Activity (Pseudomonas aeruginosa [8]) was “inactive” and the Activity (Pseudomonas aeruginosa [9]) was “inactive”. For the same molecule, the Activity (Pseudomonas aeruginosa [10]) was “inactive”.
With H-FLFKLIPKVIKGLVKAIRK-NH2 the MIC [11] was 2 µM, the MIC (Staphylococcus aureus [12]) was 2 µM and the MIC (Salmonella typhimurium [13]) was 4 µM. The MIC (Salmonella typhimurium [14]) was 2 µM, the MIC (Escherichia coli [15]) was 2 µM and the MIC (Pseudomonas aeruginosa [16]) was 4 µM. It also gave an MIC (Staphylococcus aureus [17]) of 2 µM, an MIC [18] of 2 µM and an MIC (Staphylococcus aureus [19]) of 2 µM. It also gave an MIC (Salmonella typhimurium [20]) of 2 µM, an MIC (Salmonella typhimurium [21]) of 2 µM and an MIC (Escherichia coli [22]) of 1 µM. It also gave an MIC (Pseudomonas aeruginosa [23]) of 1 µM, an MIC (Staphylococcus aureus [24]) of 2 µM and an MIC (Staphylococcus aureus [25]) of 2 µM. It also gave an MIC (Staphylococcus aureus [26]) of 2 µM, an MHC10 [1] of 16 µM and an MHC10 [2] of 2 µM. The selectivity ratio [3] was 0.13, the IC50 at 24 h [4] was 2450 nM and the IC50 at 24 h [5] was 1910 nM. For the same molecule, the Activity (Cell membrane [27]) was “inactive”, the Activity (Cell membrane [28]) was “Tde” and the Activity (Lipopolysaccharide (LPS) [29]) was “Active”. For the same molecule, the Activity (Lipopolysaccharide (LPS) [30]) was “Active” and the Activity (Cell membrane [31]) was “Dose-Dependent Effect”.
